We go through four compounds from patent US6914045B2, “Glycopeptide antibiotics” (Wyeth Holdings Corporation, priority 2001, dated 2005).

In one experiment the test system is Staphylococcus aureus. Put plainly: zone of inhibition, agar well assay plate. In kind it is cell-based. Particulars: 25 μl of extract per 5 mm well, incubated overnight at 37° C. As to the method:
Protocol for Assay Plate Staphylococcus aureus
Inoculate 10 mL of Tryptic Soy Broth with a loopful of slant culture, Staphylococcus aureus, and place in a stationary rack at 37° C. After 16-18 hour incubation, the Optical Density (OD) of the culture is read@A600 nm, using a 1:10 dilution. OD should be between 0.1-0.3, and if not adjust with Tryptic Soy Broth. A 40 mL sample of Nutrient Agar, pH 6.8 is inoculated with 90 ul of S. aureus culture and poured into a sterile petri dish. When the agar has solidified, wells (5 mm) are plated using an automated welling device. Wells are inoculated with 25 μl of extract and incubated overnight at 37° C. Zones of inhibition are measured and recorded the following morning.

The subject of the next experiment is Escherichia coli. Put plainly: in vitro antibacterial evaluation, MIC by broth dilution. In kind it is cell-based. To be noted: 18 hours at 35° C. In outline:
(§1)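 MIC, the lowest antibiotic concentration preventing growth, was read across 64-0.06 μg/mL with 5×10^5 CFU/mL inoculum. Method followed NCCLS M7-A2 broth dilution using Mueller-Hinton II; Gram-positive strains covered recent methicillin-, penicillin- and/or vancomycin-resistant clinical isolates.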

In another experiment the test system is Staphylococcus sp. Described as above. Type of experiment: cell-based. To be noted: broth dilution, 18 hours at 35° C. In outline:
as §1

Another experiment concerns Enterococcus sp. The description is as above. In kind it is cell-based. To be noted: broth dilution, 18 hours at 35° C. In outline: as §1
(In broth dilution the organism is exposed to a series of concentrations in liquid medium.)

The next experiment concerns Streptococcus sp. The experiment is described as above. Type of experiment: cell-based. To be noted: broth dilution, 18 hours at 35° C. Summed up: as §1
Experiment [1] deals with Staphylococcus aureus-SMITH (GC 4543). Put plainly: acute lethal infection in mice. Type of experiment: in vivo. To be noted: acute lethal infection, female CD-1 mice, intraperitoneal challenge, intravenous 30 min. after infection, 7 day survival. In outline: (§2)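 Female CD-1 mice (20+/−2 gm) were infected intraperitoneally with enough bacteria, suspended in trypticase soy broth or hog gastric mucin, to kill untreated controls within 24-48 hr. Compound in saline or 5% dextrose was given intravenously 30 min post-infection, five mice per dose. ED50 came from pooled 7 day survival of 3 tests.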

The subject of experiment [2] is Enterococcus faecalis (GC 6189). Put plainly: acute lethal infection in mice. Type of experiment: in vivo. Particulars: female CD-1 mice, intraperitoneal challenge, intravenous 30 min. after infection, 7 day survival. Summed up: as §2

SMILES strings stand for the structures. ≈ marks a conversion by molar mass, not a printed value. Where “and” joins values, the source holds several entries; their conditions need not be identical. Identical values can stand only once.

In the case of `CCC(C)CC(=O)OC1C(CO)OC(OC2C(CO)OC(Oc3ccc(CC4NC(=O)C(C(C)c5ccccc5)NC(=O)CNC(=O)C(CO)NC(=O)C(C(O)C5CNC(=N)N5C5OC(CO)C(O)C(O)C5O)NC(=O)C(C(O)C5CNC(=N)N5)NC4=O)cc3)C(O)C2O)C(O)C1O` (stereo not drawn) [Example 271c, Cyclo[glycyl-β-methylphenylalanyl-O-[4-O-[4-O-(3-methylpentanoyl)hexopyranosyl]-hexopyranosyl]tyrosyl-3-(2-iminoimidazolidin-4 yl)seryl-3-(3-hexopyranosyl-2-iminoimidazolidin-4-yl)serylseryl]], the “Zone of Inhibition vs. S. aureus” value in the experiment with Staphylococcus aureus stood at 12 mm.

Take `CCCCCC(=O)OC1C(O)C(CO)OC(OC2C(CO)OC(Oc3ccc(CC4NC(=O)C(C(C)c5ccccc5)NC(=O)CNC(=O)C(CO)NC(=O)C(C(O)C5CNC(=N)N5C5OC(CO)C(O)C(O)C5O)NC(=O)C(C(O)C5CNC(=N)N5)NC4=O)cc3)C(O)C2O)C1O` (stereo not drawn) [Example 273b, Cyclo[glycyl-β-methylphenylalanyl-O-[4-O-(3-O-hexanoyl-hexopyranosyl)-hexopyranosyl]tyrosyl-3-(2-iminoimidazolidin-4-yl)seryl-3-(3-hexopyranosyl-2-iminoimidazolidin-4-yl)serylseryl]]: the “Zone of Inhibition vs. S. aureus” value in the experiment with Staphylococcus aureus was 9 mm and 8 mm.

With `CCCCCCC(=O)OC1C(OC2C(CO)OC(Oc3ccc(CC4NC(=O)C(C(C)c5ccccc5)NC(=O)CNC(=O)C(CO)NC(=O)C(C(O)C5CNC(=N)N5C5OC(CO)C(O)C(O)C5O)NC(=O)C(C(O)C5CNC(=N)N5)NC4=O)cc3)C(O)C2O)OC(CO)C(O)C1O` (stereo not drawn) [Example 274a, Cyclo[glycyl-β-methylphenylalanyl-O-[4-O-(2-O-heptanoyl-hexopyranosyl)-hexopyranosyl]tyrosyl-3-(2-iminoimidazolidin-4-yl)seryl-3-(3-hexopyranosyl-2-iminoimidazolidin-4-yl)serylseryl]], in the experiment with Staphylococcus aureus, the “Zone of Inhibition vs. S. aureus” value was 9 mm.

Consider `Cc1cccc(C2OCC3OC(OC4C(CO)OC(Oc5ccc(CC6NC(=O)C(C(C)c7ccccc7)NC(=O)CNC(=O)C(CO)NC(=O)C(C(O)C7CNC(=N)N7C7OC(CO)C(O)C(O)C7O)NC(=O)C(C(O)C7CNC(=N)N7)NC6=O)cc5)C(O)C4O)C(O)C(O)C3O2)c1` (stereo not drawn) [Example 135, Cyclo[glycyl-β-methylphenylalanyl-O-[4-O-[4,6-O-(3-methylbenzylidene)hexopyranosyl]-hexopyranosyl]tyrosyl-3-(2-iminoimidazolidin-4-yl)seryl-3-(3-hexopyranosyl-2-iminoimidazolidin-4-yl)serylseryl]], for which the “MIC Escherichia coli (ATCC 25922)” value with Escherichia coli (strain ATCC 25922) was 32 µg/mL (≈ 22.9 µM). Further, the “MIC Escherichia coli (GC 4559)” value against Escherichia coli (strain GC 4559) stood at 32 µg/mL (≈ 22.9 µM). Moreover, the “MIC Escherichia coli (GC 4560)” value against Escherichia coli (strain GC 4560) stood at 0.5 µg/mL (≈ 0.358 µM). Besides, the “MIC Staphylococcus aureus (ATCC 29213)” value in the experiment with Staphylococcus sp. and with Staphylococcus sp. (strain ATCC 29213) was 1 µg/mL (≈ 0.716 µM) throughout. In addition, the “MIC Staphylococcus aureus (GC 1131)” value stood at 1 µg/mL (≈ 0.716 µM) against Staphylococcus sp. and 1 µg/mL (≈ 0.716 µM) against Staphylococcus sp. (inoculum 5×10^5 CFU/mL, strain GC 1131). Also, the “MIC Staphylococcus aureus (GC 3051)” value against Staphylococcus sp. and with Staphylococcus sp. (strain GC 3051) was 1 µg/mL (≈ 0.716 µM) in each case. Moreover, the “MIC Staphylococcus aureus (GC 3053)” value with Staphylococcus sp. and against Staphylococcus sp. (strain GC 3053) was 1 µg/mL (≈ 0.716 µM) each time. For the same compound, the “MIC Staphylococcus aureus (GC 4541)” value against Staphylococcus sp. and in the experiment with Staphylococcus sp. (strain GC 4541) was 1 µg/mL (≈ 0.716 µM) throughout. For the same compound, the “MIC Staphylococcus aureus (GC 4542)” value against Staphylococcus sp. and against Staphylococcus sp. (strain GC 4542) was 1 µg/mL (≈ 0.716 µM) in each case. For the same compound, the “MIC Staphylococcus aureus (GC 4544)” value in the experiment on Staphylococcus sp. and against Staphylococcus sp. (strain GC 4544) was 2 µg/mL (≈ 1.43 µM) each time. Besides, the “MIC Staphylococcus aureus (GC 4545)” value in the experiment on Staphylococcus sp. and against Staphylococcus sp. (strain GC 4545) was 1 µg/mL (≈ 0.716 µM) throughout. In addition, the “MIC Staphylococcus aureus-SMITH (GC 4543)” value in the experiment on Staphylococcus sp. (strain GC 4543) and against Staphylococcus sp. (strain SMITH GC 4543) was 1 µg/mL (≈ 0.716 µM) in each case. For the same compound, the “MIC Staphylococcus haemolyticus (GC 4546)” value against Staphylococcus sp. (strain GC 4546) came out at 0.5 µg/mL (≈ 0.358 µM). The “MIC Coagulase Negative Staphylococcus (GC 4547)” value in the experiment on Staphylococcus sp. (strain GC 4547) amounted to 1 µg/mL (≈ 0.716 µM). Moreover, the “MIC Coagulase Negative Staphylococcus (GC 4548)” value against Staphylococcus sp. (strain GC 4548) was determined as 0.5 µg/mL (≈ 0.358 µM). In addition, in the experiment on Staphylococcus sp. (strain GC 4549), the “MIC Coagulase Negative Staphylococcus (GC 4549)” value came to 0.5 µg/mL (≈ 0.358 µM). Besides, in the experiment with Staphylococcus sp. (strain GC 4551), the “MIC Coagulase Negative Staphylococcus (GC 4551)” value turned out to be 1 µg/mL (≈ 0.716 µM). Moreover, the “MIC Coagulase Negative Staphylococcus (GC 6257)” value against Staphylococcus sp. (strain GC 6257) was 0.5 µg/mL (≈ 0.358 µM). Besides, the “MIC Enterococcus avium (GC 4558)” value against Enterococcus sp. (Enterococcus avium (GC 4558)) and in the experiment with Enterococcus sp. (strain GC 4558) was 2 µg/mL (≈ 1.43 µM) in each case. Moreover, the “MIC Enterococcus faecalis (ATCC 29212)” value against Enterococcus sp. (Enterococcus faecalis (ATCC 29212)) and in the experiment on Enterococcus sp. (strain ATCC 29212) was 2 µg/mL (≈ 1.43 µM) in each case. The “MIC Enterococcus faecalis (GC 2242)” value with Enterococcus sp. (Enterococcus faecalis (GC 2242)) and in the experiment on Enterococcus sp. (strain GC 2242) was 2 µg/mL (≈ 1.43 µM) each time. The “MIC Enterococcus faecalis (GC 2691)” value against Enterococcus sp. (Enterococcus faecalis (GC 2691)) and in the experiment on Enterococcus sp. (strain GC 2691) was 2 µg/mL (≈ 1.43 µM) throughout. The “MIC Enterococcus faecalis (GC 3059)” value in the experiment with Enterococcus sp. (Enterococcus faecalis (GC 3059)) and with Enterococcus sp. (strain GC 3059) was 2 µg/mL (≈ 1.43 µM) each time. In addition, the “MIC Enterococcus faecalis (GC 4552)” value in the experiment with Enterococcus sp. (Enterococcus faecalis (GC 4552)) and in the experiment on Enterococcus sp. (strain GC 4552) was 2 µg/mL (≈ 1.43 µM) each time. Further, the “MIC Enterococcus faecalis (GC 4553)” value with Enterococcus sp. (Enterococcus faecalis (GC 4553)) and in the experiment with Enterococcus sp. (strain GC 4553) was 2 µg/mL (≈ 1.43 µM) each time. Besides, the “MIC Enterococcus faecalis (GC 4554)” value with Enterococcus sp. (Enterococcus faecalis (GC 4554)) and against Enterococcus sp. (strain GC 4554) was 2 µg/mL (≈ 1.43 µM) in each case. The “MIC Enterococcus faecalis (GC 6189)” value against Enterococcus sp. (Enterococcus faecalis (GC 6189)) and with Enterococcus sp. (strain GC 6189) was 2 µg/mL (≈ 1.43 µM) in each case. Further, the “MIC Enterococcus faecium (GC 2243)” value in the experiment on Enterococcus sp. (Enterococcus faecium (GC 2243)) and with Enterococcus sp. (strain GC 2243) was 2 µg/mL (≈ 1.43 µM) throughout. The “MIC Enterococcus faecium (GC 4556)” value with Enterococcus sp. (Enterococcus faecium (GC 4556)) and in the experiment on Enterococcus sp. (strain GC 4556) was 2 µg/mL (≈ 1.43 µM) in each case. Besides, the “MIC Enterococcus faecium (GC 4557)” value against Enterococcus sp. (Enterococcus faecium (GC 4557)) and in the experiment on Enterococcus sp. (strain GC 4557) was 2 µg/mL (≈ 1.43 µM) each time. Moreover, the “MIC Streptococcus agalactiae (GC 4564)” value against Streptococcus sp. (Streptococcus agalactiae (GC 4564)) and with Streptococcus sp. (strain GC 4564) was 0.25 µg/mL (≈ 0.179 µM) throughout. Also, the “MIC Streptococcus pneumoniae (ATCC 6301)” value against Streptococcus sp. (Streptococcus pneumoniae (ATCC 6301)) and against Streptococcus sp. (strain ATCC 6301) was under 0.06 µg/mL throughout. Further, the “MIC Streptococcus pneumoniae (GC 1894)” value with Streptococcus sp. (Streptococcus pneumoniae (GC 1894)) and in the experiment with Streptococcus sp. (strain GC 1894) was under 0.06 µg/mL throughout. The “MIC Streptococcus pneumoniae (GC 4565)” value against Streptococcus sp. (Streptococcus pneumoniae (GC 4565)) and against Streptococcus sp. (strain GC 4565) was under 0.06 µg/mL in each case. Further, the “MIC Streptococcus pyogenes (GC 4563)” value in the experiment on Streptococcus sp. (Streptococcus pyogenes (GC 4563)) and against Streptococcus sp. (strain GC 4563) was 0.25 µg/mL (≈ 0.179 µM) in each case. Moreover, in experiment [1], the median effective dose (ED50), Staphylococcus aureus-SMITH (GC 4543) came to 0.07 mg/kg. In experiment [2], this compound yielded a median effective dose (ED50), Enterococcus faecalis (GC 6189) of 0.26 mg/kg.
